“And” between values parts separate entries of the source, which are not always exact repeats. Equal entries are not always repeated.
Key:
[1] = Determination of pKa value of monomer having hydrophilic group by NaOH titration
Experimental: In a water/acetone mixture (10/15 ml) solution was poured 0.7865 g of CH2═CHCH2C(CF3)2OH, followed by stirring at room temperature. After it was confirmed that the solution was homogeneous, titration was carried out with about 0.2 mol/L NaOH solution. A titration curve was obtained by adding the NaOH solution dropwise in increments of 0.15 ml and recording a pH value at every addition. An equivalence point was determined by an inflection point (maximum differential value of titration curve=dpH/dml) of the titration curve.

[2] = physchem
[3] = water/acetone mixture, pKa, monomer having hydrophilic group used in the Preparation Example, corrected
[4] = monomer having hydrophilic group used in the Preparation Example, NaOH titration in water/acetone, corrected

Row | Compound | pKa [1, 3] | pKa [1, 4] | also measured
1 | C=C(C(=O)O)C(F)(F)F [2-(trifluoromethyl)acrylic acid] | 3.9 | – | –
2 | C=C(F)C(F)(F)OC(F)(C(F)(F)F)C(F)(F)OC(F)(CO)C(F)(F)F (centres unmarked) [(1,1,9,9-tetrahydro-2,5-bistrifluoromethyl-3,6-dioxa-8-nonenol)] | – | 12.6 | –
3 | C=C(F)C(F)(F)OC(F)(C(=O)O)C(F)(F)F (centres unmarked) [perfluoro-(6,6-dihydro-2-trifluoromethyl-3-oxa-5-hexenoic acid)] | – | – | pKa [2]: 3.4
4 | C=C(F)C(F)(F)OC(F)(C(F)(F)F)C(F)(F)OC(F)(C(=O)O)C(F)(F)F (centres unmarked) [perfluoro-(9,9-dihydro-2,5-bistrifluoromethyl-3,6-dioxa-8-nonenoic acid)] | – | 3.6 | –

Second part, led by results:

Row | pKa [1, 3] | pKa [1, 4] | Compound | also measured
5 | 9.6 | – | C=CCC(O)(C(F)(F)F)C(F)(F)F [CH2═CHCH2C(CF3)2OH, 1,1-bistrifluoromethyl-3-buten-1-ol] | pKa value (single titration) ([1]; NaOH titration in water/acetone, pH at half equivalence point minus blank difference): 9.64 and 9.54; pKa ([1]; water/acetone mixture, pKa value (decided from experiments carried out three times), NaOH titration in water/acetone): 9.6; pKa ([1]; water/acetone mixture, pKa value (single titration), NaOH titration in water/acetone, pH at half equivalence point minus blank difference): 9.69
6 | 1.4 | – | O=C(O)/C=C\C(=O)O [Maleic acid] | –
7 | – | 3.8 | C=C(F)C(F)(F)OC(F)(C(F)(F)F)C(F)(F)OC(F)(C(F)(F)F)C(F)(F)OC(F)(C(=O)O)C(F)(F)F (centres unmarked) [perfluoro-(12,12-dihydro-2,5,8-tristrifluoromethyl-3,6,9-trioxa-11-dodecenic acid)] | –
8 | – | 4.0 | C=C(F)C(F)(F)OC(F)(C(F)(F)F)C(F)(F)OC(F)(C(F)(F)F)C(F)(F)OC(F)(C(F)(F)F)C(F)(F)OC(F)(C(=O)O)C(F)(F)F (centres unmarked) [perfluoro-(15,15-dihydro-2,5,8,11-tetrakistrifluoromethyl-3,6,9,12-tetraoxa-14-pentadecenic acid)] | –
